What was measured:
[1] = The drug is tested on Z-030 corresponding to mouse gut metagenome with ENA study accession number: PRJEB37062 and ENA sample accession number: ERS12561829 for biotransformation under anaerobic condition. The drug concentrations were measured over 9 timepoints collected between 0 and 24 hours of incubation by liquid-chromatography-coupled mass spectrometry (LC–MS); conditions: 2 µM
[2] = human gut metagenome, 24 h, 2 µM
[3] = human gut metagenome, 24 h, 2 µM; remark: listed apart in the source
[4] = The drug is tested on Z-011 corresponding to mouse gut metagenome with ENA study accession number: PRJEB37062 and ENA sample accession number: ERS12561811 for biotransformation under anaerobic condition. The drug concentrations were measured over 9 timepoints collected between 0 and 24 hours of incubation by liquid-chromatography-coupled mass spectrometry (LC–MS); conditions: 2 µM
[5] = human gut metagenome, 24 h, 2 µM; remark: listed apart in the source
[6] = The drug is tested on Z-004 corresponding to metagenome with ENA study accession number: PRJEB37062 and ENA sample accession number: ERS12561804 for biotransformation under anaerobic condition. The drug concentrations were measured over 9 timepoints collected between 0 and 24 hours of incubation by liquid-chromatography-coupled mass spectrometry (LC–MS); conditions: 2 µM
[7] = The drug is tested on WLS-086 corresponding to human gut metagenome with ENA study accession number: PRJEB37062 and ENA sample accession number: ERS12561752 for biotransformation under anaerobic condition. The drug concentrations were measured over 9 timepoints collected between 0 and 24 hours of incubation by liquid-chromatography-coupled mass spectrometry (LC–MS); conditions: 2 µM
[8] = human gut metagenome, 24 h, 2 µM; remark: listed apart in the source
[9] = human gut metagenome, 24 h, 2 µM; remark: listed apart in the source
[10] = human gut metagenome, 24 h, 2 µM; remark: listed apart in the source
[11] = The drug is tested on WLS-090 corresponding to human gut metagenome with ENA study accession number: PRJEB37062 and ENA sample accession number: ERS12561753 for biotransformation under anaerobic condition. The drug concentrations were measured over 9 timepoints collected between 0 and 24 hours of incubation by liquid-chromatography-coupled mass spectrometry (LC–MS); conditions: 2 µM
[12] = The drug is tested on WLS-370 corresponding to human gut metagenome with ENA study accession number: PRJEB37062 and ENA sample accession number: ERS12561793 for biotransformation under anaerobic condition. The drug concentrations were measured over 9 timepoints collected between 0 and 24 hours of incubation by liquid-chromatography-coupled mass spectrometry (LC–MS); conditions: 2 µM
[13] = human gut metagenome, 24 h, 2 µM; remark: listed apart in the source
[14] = human gut metagenome, 24 h, 2 µM; remark: listed apart in the source
[15] = human gut metagenome, 24 h, 2 µM; remark: listed apart in the source
[16] = human gut metagenome, 24 h, 2 µM; remark: listed apart in the source
[17] = The drug is tested on Z-023 corresponding to metagenome with ENA study accession number: PRJEB37062 and ENA sample accession number: ERS12561822 for biotransformation under anaerobic condition. The drug concentrations were measured over 9 timepoints collected between 0 and 24 hours of incubation by liquid-chromatography-coupled mass spectrometry (LC–MS); conditions: 2 µM
[18] = The drug is tested on Z-029 corresponding to rat gut metagenome with ENA study accession number: PRJEB37062 and ENA sample accession number: ERS12561828 for biotransformation under anaerobic condition. The drug concentrations were measured over 9 timepoints collected between 0 and 24 hours of incubation by liquid-chromatography-coupled mass spectrometry (LC–MS); conditions: 2 µM
[19] = human gut metagenome, 24 h, 2 µM; remark: listed apart in the source
[20] = The drug is tested on Z-009 corresponding to pig gut metagenome with ENA study accession number: PRJEB37062 and ENA sample accession number: ERS12561809 for biotransformation under anaerobic condition. The drug concentrations were measured over 9 timepoints collected between 0 and 24 hours of incubation by liquid-chromatography-coupled mass spectrometry (LC–MS); conditions: 2 µM
Also: call rule not given here.

NS(=O)(=O)c1cc2c(cc1Cl)N=C(CSCc1ccccc1)NS2(=O)=O [BENZTHIAZIDE]
Bacterial Biotransformation [1]: Compound NOT metabolized
Bacterial Biotransformation [2]: Compound NOT metabolized
Bacterial Biotransformation [3]: Compound NOT metabolized
Bacterial Biotransformation [4]: Compound NOT metabolized
Bacterial Biotransformation [5]: Compound NOT metabolized
Bacterial Biotransformation [6]: Compound NOT metabolized
Bacterial Biotransformation [7]: Compound NOT metabolized
Bacterial Biotransformation [8]: Compound NOT metabolized
Bacterial Biotransformation [9]: Compound NOT metabolized
Bacterial Biotransformation [10]: Compound NOT metabolized
Bacterial Biotransformation [11]: Compound NOT metabolized
Bacterial Biotransformation [12]: Compound NOT metabolized
Bacterial Biotransformation [13]: Compound NOT metabolized
Bacterial Biotransformation [14]: Compound NOT metabolized
Bacterial Biotransformation [15]: Compound NOT metabolized
Bacterial Biotransformation [16]: Compound NOT metabolized
Bacterial Biotransformation [17]: Compound metabolized
Bacterial Biotransformation [18]: Compound NOT metabolized
Bacterial Biotransformation [19]: Compound metabolized
Bacterial Biotransformation [20]: Compound NOT metabolized

CC(C)NCC(O)COc1ccc(COCCOC(C)C)cc1.CC(C)NCC(O)COc1ccc(COCCOC(C)C)cc1.O=C(O)/C=C/C(=O)O (stereo not given) [BISOPROLOL FUMARATE]
Bacterial Biotransformation [1]: Compound NOT metabolized
Bacterial Biotransformation [2]: Compound NOT metabolized
Bacterial Biotransformation [3]: Compound NOT metabolized
Bacterial Biotransformation [4]: Compound metabolized
Bacterial Biotransformation [5]: Compound NOT metabolized
Bacterial Biotransformation [6]: Compound NOT metabolized
Bacterial Biotransformation [7]: Compound metabolized
Bacterial Biotransformation [8]: Compound NOT metabolized
Bacterial Biotransformation [9]: Compound NOT metabolized
Bacterial Biotransformation [10]: Compound NOT metabolized
Bacterial Biotransformation [11]: Compound metabolized
Bacterial Biotransformation [12]: Compound NOT metabolized
Bacterial Biotransformation [13]: Compound metabolized
Bacterial Biotransformation [14]: Compound metabolized
Bacterial Biotransformation [15]: Compound NOT metabolized
Bacterial Biotransformation [16]: Compound metabolized
Bacterial Biotransformation [17]: Compound metabolized
Bacterial Biotransformation [18]: Compound NOT metabolized
Bacterial Biotransformation [19]: Compound metabolized
Bacterial Biotransformation [20]: Compound metabolized

CCCCCOC(=O)Nc1nc(=O)n([C@@H]2O[C@H](C)[C@@H](O)[C@H]2O)cc1F [CAPECITABINE]
Bacterial Biotransformation [1]: Compound metabolized
Bacterial Biotransformation [2]: Compound metabolized
Bacterial Biotransformation [3]: Compound metabolized
Bacterial Biotransformation [4]: Compound metabolized
Bacterial Biotransformation [5]: Compound metabolized
Bacterial Biotransformation [6]: Compound metabolized
Bacterial Biotransformation [7]: Compound metabolized
Bacterial Biotransformation [8]: Compound metabolized
Bacterial Biotransformation [9]: Compound metabolized
Bacterial Biotransformation [10]: Compound metabolized
Bacterial Biotransformation [11]: Compound metabolized
Bacterial Biotransformation [12]: Compound metabolized
Bacterial Biotransformation [13]: Compound metabolized
Bacterial Biotransformation [14]: Compound metabolized
Bacterial Biotransformation [15]: Compound NOT metabolized
Bacterial Biotransformation [16]: Compound metabolized
Bacterial Biotransformation [17]: Compound metabolized
Bacterial Biotransformation [18]: Compound metabolized
Bacterial Biotransformation [19]: Compound metabolized
Bacterial Biotransformation [20]: Compound metabolized

Cc1ccc(-c2cc(C(F)(F)F)nn2-c2ccc(S(N)(=O)=O)cc2)cc1 [CELECOXIB]
Bacterial Biotransformation [1]: Compound NOT metabolized
Bacterial Biotransformation [2]: Compound NOT metabolized
Bacterial Biotransformation [3]: Compound NOT metabolized
Bacterial Biotransformation [4]: Compound NOT metabolized
Bacterial Biotransformation [5]: Compound metabolized
Bacterial Biotransformation [6]: Compound NOT metabolized
Bacterial Biotransformation [7]: Compound NOT metabolized
Bacterial Biotransformation [8]: Compound NOT metabolized
Bacterial Biotransformation [9]: Compound metabolized
Bacterial Biotransformation [10]: Compound metabolized
Bacterial Biotransformation [11]: Compound NOT metabolized
Bacterial Biotransformation [12]: Compound metabolized
Bacterial Biotransformation [13]: Compound metabolized
Bacterial Biotransformation [14]: Compound metabolized
Bacterial Biotransformation [15]: Compound NOT metabolized
Bacterial Biotransformation [16]: Compound metabolized
Bacterial Biotransformation [17]: Compound NOT metabolized
Bacterial Biotransformation [18]: Compound NOT metabolized
Bacterial Biotransformation [19]: Compound metabolized
Bacterial Biotransformation [20]: Compound NOT metabolized

Clc1ccc(Cn2c(CN3CCCC3)nc3ccccc32)cc1 [CLEMIZOLE]
Bacterial Biotransformation [1]: Compound NOT metabolized
Bacterial Biotransformation [2]: Compound metabolized
Bacterial Biotransformation [3]: Compound metabolized
Bacterial Biotransformation [4]: Compound NOT metabolized
Bacterial Biotransformation [5]: Compound NOT metabolized
Bacterial Biotransformation [6]: Compound NOT metabolized
Bacterial Biotransformation [7]: Compound metabolized
Bacterial Biotransformation [8]: Compound NOT metabolized
Bacterial Biotransformation [9]: Compound metabolized
Bacterial Biotransformation [10]: Compound NOT metabolized
Bacterial Biotransformation [11]: Compound metabolized
Bacterial Biotransformation [12]: Compound metabolized
Bacterial Biotransformation [13]: Compound metabolized
Bacterial Biotransformation [14]: Compound metabolized
Bacterial Biotransformation [15]: Compound metabolized
Bacterial Biotransformation [16]: Compound metabolized
Bacterial Biotransformation [17]: Compound metabolized
Bacterial Biotransformation [18]: Compound NOT metabolized
Bacterial Biotransformation [19]: Compound metabolized
Bacterial Biotransformation [20]: Compound NOT metabolized
